What all share (assay type): cell-based
Holding throughout (design): GPCRome screening signal at PTGIR / GPCRome screening signal at PTH1R / GPCRome screening signal at PTH2R / GPCRome screening signal at QRFP / GPCRome screening signal at RXFP2 / GPCRome screening signal at RXFP3 / GPCRome screening signal at RXFP4 / GPCRome screening signal at S1PR2 / GPCRome screening signal at S1PR3 / GPCRome screening signal at S1PR4 / GPCRome screening signal at S1PR5 / GPCRome screening signal at SCTR / GPCRome screening signal at SSTR2 / GPCRome screening signal at SSSTR / GPCRome screening signal at SSTR4 / GPCRome screening signal at SSTR5 / GPCRome screening signal at SUCNR1 / GPCRome screening signal at TA1 / GPCRome screening signal at TAAR2 / GPCRome screening signal at TAAR5 / GPCRome screening signal at TAAR6 / GPCRome screening signal at TAAR8 / GPCRome screening signal at TACR1 / GPCRome screening signal at TACR2 / GPCRome screening signal at TACR3 / GPCRome screening signal at TBXA2R / GPCRome screening signal at TSHR / GPCRome screening signal at UTS2R / GPCRome screening signal at VIPR2 / GPCRome screening signal at GPR68 no V2 Tail / GPCRome screening signal at GRM2 / GPCRome screening signal at GRM3: reference not given here

The target in assay [1] is T1, 320 non-olfactory GPCRs (Homo sapiens, UniProt P32241).
T1 construct: expressed in transfected cells; host or cells: HTLA cells
T1 sequence (P32241 31-457): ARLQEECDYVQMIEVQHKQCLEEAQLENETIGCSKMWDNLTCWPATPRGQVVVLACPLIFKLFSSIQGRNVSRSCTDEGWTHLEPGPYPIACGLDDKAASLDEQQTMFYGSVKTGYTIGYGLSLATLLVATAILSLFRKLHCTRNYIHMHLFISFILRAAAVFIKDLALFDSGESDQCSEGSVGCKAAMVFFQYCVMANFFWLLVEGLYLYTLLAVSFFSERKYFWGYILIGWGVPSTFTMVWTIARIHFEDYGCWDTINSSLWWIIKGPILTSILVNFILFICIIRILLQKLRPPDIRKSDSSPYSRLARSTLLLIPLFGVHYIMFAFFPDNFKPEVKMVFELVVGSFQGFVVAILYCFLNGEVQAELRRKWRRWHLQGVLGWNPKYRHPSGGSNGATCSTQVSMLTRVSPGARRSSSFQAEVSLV
The following applies: receptor VIPR1.

In assay [2] the target is 320 non-olfactory GPCRs (Homo sapiens, UniProt P35346). The following applies: receptor SSTR5.
320 non-olfactory GPCRs (Homo sapiens, UniProt P35346), sequence (P35346 whole entry): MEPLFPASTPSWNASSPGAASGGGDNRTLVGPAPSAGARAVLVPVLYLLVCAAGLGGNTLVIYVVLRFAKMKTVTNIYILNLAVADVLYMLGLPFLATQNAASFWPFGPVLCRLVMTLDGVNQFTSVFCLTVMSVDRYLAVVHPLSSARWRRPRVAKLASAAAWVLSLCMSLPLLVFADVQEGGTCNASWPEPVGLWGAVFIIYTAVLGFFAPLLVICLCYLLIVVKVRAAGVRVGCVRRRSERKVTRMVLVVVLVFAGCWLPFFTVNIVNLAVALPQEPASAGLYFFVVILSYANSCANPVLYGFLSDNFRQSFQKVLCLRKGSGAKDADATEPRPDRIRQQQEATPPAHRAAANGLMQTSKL
Assay [3] addresses T2, 320 non-olfactory GPCRs (Homo sapiens, UniProt Q14416).
T2 construct: expressed in transfected cells; host or cells: HTLA cells
The following applies: receptor GRM2.

The target of assay [4] is T3, 320 non-olfactory GPCRs (Homo sapiens, UniProt Q96RJ0).
T3 construct: expressed in transfected cells; host or cells: HTLA cells
T3 sequence (Q96RJ0 whole entry): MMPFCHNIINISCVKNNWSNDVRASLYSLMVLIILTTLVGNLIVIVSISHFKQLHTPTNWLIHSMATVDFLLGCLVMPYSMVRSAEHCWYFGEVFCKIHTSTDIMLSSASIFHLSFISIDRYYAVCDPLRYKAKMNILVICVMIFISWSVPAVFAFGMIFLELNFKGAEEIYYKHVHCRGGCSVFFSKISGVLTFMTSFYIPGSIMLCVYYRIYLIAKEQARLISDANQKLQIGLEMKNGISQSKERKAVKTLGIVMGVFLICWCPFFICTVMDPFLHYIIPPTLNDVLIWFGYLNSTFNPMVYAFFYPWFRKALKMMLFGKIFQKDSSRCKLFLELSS
The following applies: receptor TA1.

Setting [5] is: Fig_5f, single replicate values.

Values joined by “and” are separate entries in the source; they are usually repeats but may differ in a detail not shown here. Equal values may be shown once.
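Wherever GPCRome agonism screen response is given: fold over basal response of each receptor without drug.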

T2 sequence (Q14416 19-872): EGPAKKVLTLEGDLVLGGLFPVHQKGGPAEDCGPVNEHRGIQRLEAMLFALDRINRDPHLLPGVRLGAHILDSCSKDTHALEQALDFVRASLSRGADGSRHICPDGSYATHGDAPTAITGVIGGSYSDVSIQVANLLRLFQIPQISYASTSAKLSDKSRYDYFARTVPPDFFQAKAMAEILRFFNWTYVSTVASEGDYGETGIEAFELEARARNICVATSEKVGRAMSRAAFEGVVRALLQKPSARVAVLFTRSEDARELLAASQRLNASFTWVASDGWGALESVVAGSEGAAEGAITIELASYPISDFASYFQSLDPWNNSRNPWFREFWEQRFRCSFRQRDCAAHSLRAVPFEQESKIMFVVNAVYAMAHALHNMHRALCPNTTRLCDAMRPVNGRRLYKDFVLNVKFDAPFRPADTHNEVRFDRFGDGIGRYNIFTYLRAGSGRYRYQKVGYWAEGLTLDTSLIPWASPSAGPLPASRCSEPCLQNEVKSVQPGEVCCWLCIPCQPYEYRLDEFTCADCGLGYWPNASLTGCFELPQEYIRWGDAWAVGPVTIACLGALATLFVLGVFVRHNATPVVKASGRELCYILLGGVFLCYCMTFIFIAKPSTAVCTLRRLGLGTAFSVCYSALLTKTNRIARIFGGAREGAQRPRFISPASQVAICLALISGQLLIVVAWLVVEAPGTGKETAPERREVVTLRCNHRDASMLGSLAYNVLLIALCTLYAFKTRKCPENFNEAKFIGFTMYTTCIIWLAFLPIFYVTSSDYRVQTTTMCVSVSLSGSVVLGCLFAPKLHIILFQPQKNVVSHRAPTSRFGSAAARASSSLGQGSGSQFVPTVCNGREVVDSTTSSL

Regarding `CCOc1ccccc1CCC(C)NCC1(O)CCCCC1.Cl` (racemic) [Fig_5f], the “GPCRome screening signal at VIPR1” value on 320 non-olfactory GPCRs [1] (setting [5]) is 1.328 and 1.861 and 1.314 and 1.467. For the same compound, at 320 non-olfactory GPCRs [2] (setting [5]), the “GPCRome screening signal at SSTR5” value is 1.884 and 1.207 and 1.033 and 0.572. Moreover, the “GPCRome screening signal at GRM2” value on 320 non-olfactory GPCRs [3] (setting [5]) is 0.9548 and 1.3016 and 1.1 and 0.9506. At 320 non-olfactory GPCRs [4] (setting [5]), the “GPCRome screening signal at TA1” value is 0.8481 and 0.8735 and 0.8675 and 0.7534.
Regarding `CCOc1cccc2cc(C(C)NCC3(O)CCCCC3)oc12` (centres unmarked) [O4LE6], the “GPCRome agonism screen response” value at 320 non-olfactory GPCRs [1] (replicate values, Fig_4g) is 0.8893 and 1.908 and 1.195 and 1.527; on 320 non-olfactory GPCRs [2] (replicate values, Fig_4g), 1.067 and 0.3371 and 0.8014 and 0.9752; at 320 non-olfactory GPCRs [3] (replicate values, Fig_4g), 1.717 and 0.9934 and 0.846 and 0.4952; on 320 non-olfactory GPCRs [4] (replicate values, Fig_4g), 0.6778 and 0.9948 and 0.7841 and 0.8752.

Source of the values: publication PMC7044277 (Nature Communications, 2020).
